The source of these data is patent US5100910A, “Aryl substituted tetrazole derivatives, and application thereof in therapeutics” (Delalande S.A., priority 1988, dated 1992).

In data set [1] the target is T1, MAO-B (Rattus norvegicus, UniProt P19643).
T1 construct: using, as enzyme source, a mitochrondrial suspension of the brain of a rat; from tissue; host or cells: rat brain, mitochondrial suspension
T1 sequence (P19643 1-520): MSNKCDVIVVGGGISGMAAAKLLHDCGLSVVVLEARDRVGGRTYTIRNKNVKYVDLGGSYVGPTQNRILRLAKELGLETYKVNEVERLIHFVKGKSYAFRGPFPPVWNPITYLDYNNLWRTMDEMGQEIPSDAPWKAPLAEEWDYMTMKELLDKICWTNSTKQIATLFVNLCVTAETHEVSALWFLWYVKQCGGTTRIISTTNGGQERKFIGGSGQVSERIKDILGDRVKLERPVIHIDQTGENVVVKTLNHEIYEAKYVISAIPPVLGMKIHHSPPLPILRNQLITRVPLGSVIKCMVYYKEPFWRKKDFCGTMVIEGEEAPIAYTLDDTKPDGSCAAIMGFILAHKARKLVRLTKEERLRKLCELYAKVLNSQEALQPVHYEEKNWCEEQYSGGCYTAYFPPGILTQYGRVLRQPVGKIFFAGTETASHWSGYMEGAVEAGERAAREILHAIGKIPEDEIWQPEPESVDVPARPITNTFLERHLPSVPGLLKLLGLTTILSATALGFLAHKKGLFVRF
In words: In vitro inhibition of monoamine oxidase B (substrate phenylethylamine, PEA; mitochondrial suspension of rat brain). The data set is classed as biochemical. As to conditions: for IC50: PEA substrate, 20 min preincubation, reaction 10 min. The procedure: The quantitative determination of the MAO, activity was made up by using, as enzyme source, a mitochrondrial suspension of the brain of a rat. The standard determination consists in preincubating the enzyme for 20 minutes in the absence then in the presence of the inhibitors. […] The operating method used is that of the protocol of P. C. Baker, Dev. Biol. 14, 267 (1966). The results expressed in terms of CI50 (50% inhibiting concentration) obtained with a certain number of derivatives (I) are shown in tables VII and VIII hereafter.

Data set [2] concerns the target T2, MAO-A (Rattus norvegicus, UniProt P21396).
T2 construct: using, as enzyme source, a mitochrondrial suspension of the brain of a rat; from tissue; host or cells: rat brain, mitochondrial suspension
T2 sequence (P21396 1-526): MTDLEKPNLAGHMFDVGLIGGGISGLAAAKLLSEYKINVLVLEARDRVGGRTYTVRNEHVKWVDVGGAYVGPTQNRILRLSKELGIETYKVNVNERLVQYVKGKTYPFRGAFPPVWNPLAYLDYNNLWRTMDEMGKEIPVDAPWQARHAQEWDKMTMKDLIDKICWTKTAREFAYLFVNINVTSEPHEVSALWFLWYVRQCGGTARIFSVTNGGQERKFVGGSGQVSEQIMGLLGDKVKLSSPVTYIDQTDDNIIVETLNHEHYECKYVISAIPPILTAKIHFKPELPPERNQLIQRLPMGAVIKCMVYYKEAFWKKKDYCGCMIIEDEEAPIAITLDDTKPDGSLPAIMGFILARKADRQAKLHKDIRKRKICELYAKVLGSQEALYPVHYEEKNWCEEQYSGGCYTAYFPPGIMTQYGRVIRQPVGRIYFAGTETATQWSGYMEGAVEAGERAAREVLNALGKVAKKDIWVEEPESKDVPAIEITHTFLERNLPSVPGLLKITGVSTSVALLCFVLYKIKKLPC
In words: In vitro inhibition of monoamine oxidase A (substrate serotonine, 5-HT; mitochondrial suspension of rat brain). In kind it is biochemical. The conditions noted are these: 5-HT substrate; for IC50: Table VII, 20 min preincubation, reaction 40 min; for inhibition at 1 µM: read-out: % of inhibition of MAO-A at a concentration of 10^-6 M, Table VIII, at a concentration of 10^-6 M. The procedure: The quantitative determination of the MAO, activity was made up by using, as enzyme source, a mitochrondrial suspension of the brain of a rat. The standard determination consists in preincubating the enzyme for 20 minutes in the absence then in the presence of the inhibitors. The activities are determined by using respectively serotonine (5-HT) and phenylethylamine (PEA) as substrates of the MAO-A and of MAO-B, the reaction times being 40 minutes with 5-HT and 10 minutes with PEA. The operating method used is that of the protocol of P. C. Baker, Dev. Biol. 14, 267 (1966).
The results expressed in terms of CI50 (50% inhibiting concentration) obtained with a certain number of derivatives (I) are shown in tables VII and VIII hereafter.

In data set [3] the test system is mice. As to conditions: mouse, in vivo, 1500 mg/kg.

On to `N#CCCCn1nnc(-c2ccccc2)n1` [5-phenyl 2-tetrazole butyronitrile, reference compound], for which the “pharmacological activity: selective inhibition of MAO-B” value in data set [1] is reported as “selective inhibitiopn of the monoamine oxidase of type B (MAO-B)”.
On the same count and under the same terms, under `N#CCCCCn1nnc(-c2ccccc2)n1` [5-phenyl 2-tetrazole valeronitrile, reference compound] stands “selective inhibitiopn of the monoamine oxidase of type B (MAO-B)”.
Take `N#CCCn1nnc(-c2ccc(OCc3cccc(Cl)c3)cc2)n1` [Code No. 1, 5-[4-(3-chlorobenzyloxy)phenyl] 2-tetrazole propanenitrile]: the figures for the IC50 in data set [2] and in data set [1] (Table VII) were 150000 nM and 2.2 nM, respectively. Further, in data set [3], the “toxicity after oral administration” value is recorded as “no toxicity was observed”.
For `N#CCCn1nnc(-c2ccc(OCc3ccccc3)cc2)n1` [Code No. 7] the same measures were 86000 nM, 2.3 nM and “no toxicity was observed”.
`N#CCCn1nnc(-c2ccc(-c3ccccc3)cc2)n1` [compound 13]: 7800 nM corresponded to half-maximal inhibition in data set [2] (IC50).
As to `N#CCCCn1nnc(-c2ccc(-c3ccccc3)cc2)n1` [compound 14], the IC50 in data set [2] turned out to be 9600 nM; in data set [1] (Table VII) it was 1200 nM.
The matching figures for `N#CCCCCCCn1nnc(-c2ccc(-c3ccccc3)cc2)n1` [compound 16]: 46000 nM and 5400 nM.
On to `OCCn1nnc(-c2ccc(OCc3ccccc3)cc2)n1` [compound 17], for which, in data set [3], the “toxicity after oral administration” value is listed as “no toxicity was observed”.
As to `OCCn1nnc(-c2ccc(OCc3ccccc3Cl)cc2)n1` [compound 18], the IC50 was found to be 88000 nM in data set [2] and 5.5 nM in data set [1] (Table VII).
Consider `OCCn1nnc(-c2ccc(OCc3cccc(Cl)c3)cc2)n1` [compound 19], for which, in data set [3], the “toxicity after oral administration” value is listed as “no toxicity was observed”.
`OCCn1nnc(-c2ccc(OCc3ccc(Cl)cc3)cc2)n1` [compound 20]: the results for the IC50 in data set [2] and in data set [1] (Table VII) were 60000 nM and 8 nM, respectively.
As to `OCCn1nnc(-c2ccc(OCc3ccc(Cl)c(Cl)c3)cc2)n1` [compound 23], the IC50 in data set [2] was found to be 140000 nM; in data set [1] (Table VII) it was 24 nM.
For `OCCCCCCn1nnc(-c2ccc(-c3ccccc3)cc2)n1` [compound 27] the same measures were 80000 nM and 16400 nM.
With `N#CCn1nnc(-c2ccc(OCc3ccccc3)cc2)n1` [compound 29], the inhibition at 1 µM in data set [2] was 3%. The IC50 in data set [1] (Table VIII) turned out to be 100 nM.
Compound `COCn1nnc(-c2ccc(OCc3ccccc3)cc2)n1` [compound 30] came in with an IC50 in data set [1] (Table VII) of 1600 nM.
For `Cc1ccc(COc2ccc(-c3nnn(CC#N)n3)cc2)cc1` [compound 31], half-maximal inhibition in data set [1] (Table VIII) (IC50) required 1600 nM.
`Cc1ccc(COc2ccc(-c3nnn(CCC#N)n3)cc2)cc1` [compound 32]: in data set [1] (Table VII), the IC50 is 570 nM.
Take `Cc1ccc(COc2ccc(-c3nnn(CCO)n3)cc2)cc1` [compound 33]: the inhibition at 1 µM in data set [2] is 0%. The IC50 in data set [1] (Table VIII) amounted to 8000 nM.
On to `Cc1cccc(COc2ccc(-c3nnn(CCC#N)n3)cc2)c1` [compound 35], for which, in data set [2], the inhibition at 1 µM stood at 5%. Further, the 50% inhibitory concentration (IC50) in data set [1] (Table VIII) came out at 200 nM.
As to `Cc1cccc(COc2ccc(-c3nnn(CCO)n3)cc2)c1` [compound 36], the inhibition at 1 µM in data set [2] worked out at 2%. Further, it took 300 nM to reach half-maximal inhibition in data set [1] (Table VIII) (IC50).
For `Cc1ccccc1COc1ccc(-c2nnn(CC#N)n2)cc1` [compound 37] the same measures were 10% and 160 nM.
The matching figures for `Cc1ccccc1COc1ccc(-c2nnn(CCC#N)n2)cc1` [compound 38]: 6% and 110 nM.
Turning to `Cc1ccccc1COc1ccc(-c2nnn(CCO)n2)cc1` [compound 39], the inhibition at 1 µM in data set [2] was 3%. In data set [1] (Table VIII), 290 nM corresponded to half-maximal inhibition (IC50).
The matching figures for `COc1ccc(COc2ccc(-c3nnn(CCC#N)n3)cc2)cc1` [compound 41]: 9% and 3400 nM.
The compound `COc1ccc(COc2ccc(-c3nnn(CCO)n3)cc2)cc1` [compound 42] returned an IC50 in data set [1] (Table VII) of 4700 nM.
Regarding `COc1cccc(COc2ccc(-c3nnn(CCC#N)n3)cc2)c1` [compound 44], the inhibition at 1 µM in data set [2] was 0%. For the same compound, in data set [1] (Table VIII), the IC50 came to 400 nM.
In the case of `COc1cccc(COc2ccc(-c3nnn(CCO)n3)cc2)c1` [compound 45], the inhibition at 1 µM in data set [2] came out at 7%. This compound also gave an IC50 in data set [1] (Table VIII) of 800 nM.
Turning to `N#CCn1nnc(-c2ccc(OCc3ccc(F)cc3)cc2)n1` [compound 46], in data set [2], the inhibition at 1 µM came out at 6%. The compound further showed an IC50 in data set [1] (Table VIII) of 170 nM.
Take `N#CCCn1nnc(-c2ccc(OCc3ccc(F)cc3)cc2)n1` [compound 47]: in data set [2], the inhibition at 1 µM stood at 2%. Moreover, 210 nM corresponded to half-maximal inhibition in data set [1] (Table VIII) (IC50).
Regarding `OCCn1nnc(-c2ccc(OCc3ccc(F)cc3)cc2)n1` [compound 48], in data set [2], the inhibition at 1 µM worked out at 2%. The compound also gave an IC50 in data set [1] (Table VIII) of 270 nM.
Turning to `Cc1ccc(COc2ccc(-c3nnnn3CC#N)cc2)cc1` [compound 50], the inhibition at 1 µM in data set [2] was found to be 12%. The midpoint of inhibition in data set [1] (Table VIII), the IC50, lay at 15 nM.
As for `COc1ccc(COc2ccc(-c3nnnn3CCO)cc2)cc1` [compound 51], the IC50 in data set [1] (Table VII) is 890 nM; in data set [1] (Table VIII) it was 900 nM.
With `N#CCn1nnnc1-c1ccc(OCc2ccc(F)cc2)cc1` [compound 52], in data set [2], the inhibition at 1 µM was found to be 15%. The same compound had an IC50 in data set [1] (Table VIII) of 24 nM.
The matching figures for `OCCn1nnnc1-c1ccc(OCc2ccc(F)cc2)cc1` [compound 53]: 3% and 360 nM.
Turning to `N#CCCn1nc(-c2ccc(OCc3ccccc3)cc2)oc1=O` [compound 54], half-maximal inhibition in data set [1] (Table VII) (IC50) required 6.4 nM.
Same read-out and setting: under `N#CCCn1nc(-c2ccc(OCc3ccccc3)cc2)oc1=S` [compound 55] stands 9.3 nM.
Compound `N#CCCn1nc(-c2ccc(OCc3ccccc3)cc2)sc1=O` [compound 56] registered an IC50 in data set [1] (Table VII) of 16 nM.
Turning to `N#CCCn1nc(-c2ccc(OCc3ccccc3)cc2)sc1=S` [compound 57], in data set [1] (Table VII), the IC50 was 62 nM.
As for `OCCn1nnnc1-c1ccc(OCc2ccccc2I)cc1` [compound 58], the inhibition at 1 µM in data set [2] was 3%. The compound further returned an IC50 in data set [1] (Table VIII) of 3600 nM.
For `N#CCn1nnnc1-c1ccc(OCc2ccccc2)cc1` [compound 59] the same measures were 4% and 67 nM.
In the case of `Cc1ccccc1COc1ccc(-c2nnnn2CCC#N)cc1` [compound 60], the inhibition at 1 µM in data set [2] was 17%. In data set [1] (Table VIII), the IC50 worked out at 480 nM.
The matching figures for `Cc1cccc(COc2ccc(-c3nnnn3CCC#N)cc2)c1` [compound 61]: 1% and 270 nM.
On to `CN(C)CCn1nnc(-c2ccc(OCc3ccccc3)cc2)n1` [compound 64], for which the inhibition at 1 µM in data set [2] came to 15%. Besides, the IC50 in data set [1] (Table VIII) was 280 nM.
Take `BrCCn1nnc(-c2ccc(OCc3ccccc3)cc2)n1` [compound 65]: in data set [2], the inhibition at 1 µM was found to be 4%. For the same compound, in data set [1] (Table VIII), the IC50 came out at 90 nM.
Turning to `CC(=O)NCCn1nnc(-c2ccc(OCc3ccccc3)cc2)n1` [compound 66], the inhibition at 1 µM in data set [2] worked out at 3.7%. In data set [1] (Table VIII), this compound gave an IC50 of 1500 nM.
As to `NCCn1nnc(-c2ccc(OCc3ccccc3)cc2)n1` [compound 68], in data set [2], the inhibition at 1 µM was 6%. Further, the midpoint of inhibition in data set [1] (Table VIII), the IC50, lay at 70 nM.

What is called IC50 is the point on the concentration scale where inhibition reaches its midpoint. Higher therefore signals a need for much substance.
